In patent publication US12098148B2, “Therapeutic compounds” (C4X Discovery Limited, priority 2018, dated 2024):

How the values were obtained:
[1] = biological target: human KEAP1 (N-term, residues 321-609) (Homo sapiens, UniProt Q14145); assay: biochemical;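 also: fluorescence polarization competition assay of Kelch domain binding to NRF2, 12-point 1:3 dilution series from 10 µM, read after 1 h at room temperature, floor 10 nM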
[2] = system: NQO1 mRNA in BEAS-2B cells; assay: Beas2B NQO1 mRNA cell based assay; set-up: species or system human; settings: Homo sapiens, BEAS-2B, 24 h, 24 h compound treatment, increase in NQO1 mRNA vs vehicle (0.1% DMSO), read-out: EC50
How it was run: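 BEAS-2B human bronchial epithelial cells exposed to compound for 24 h at 37 °C, 5% CO2. NQO1 mRNA measured by one-step TaqMan RT-qPCR on unpurified lysates, normalized to β-actin; relative expression by ΔΔCT method.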

human KEAP1 (N-term, residues 321-609), sequence (Q14145 321-609): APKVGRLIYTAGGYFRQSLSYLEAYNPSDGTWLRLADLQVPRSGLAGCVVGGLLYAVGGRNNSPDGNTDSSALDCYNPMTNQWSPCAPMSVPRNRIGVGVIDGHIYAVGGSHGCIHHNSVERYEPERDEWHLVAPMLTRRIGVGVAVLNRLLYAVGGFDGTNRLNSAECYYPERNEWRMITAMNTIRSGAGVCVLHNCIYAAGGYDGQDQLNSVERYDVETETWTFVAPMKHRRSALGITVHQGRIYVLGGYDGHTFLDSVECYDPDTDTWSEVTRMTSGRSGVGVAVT

Compound | IC50 [1] | EC50 [2]
O=C(O)[C@H]1CCCC[C@H]1C(=O)N1CCc2c(Br)ccc(OCc3nnc4n3CCCC4)c2[C@H]1CN1Cc2ccccc2C1=O [Example 44, (1S,2R)-2-((S)-5-bromo-1-((1-oxoisoindolin-2-yl)methyl)-8-((5,6,7,8-tetrahydro-[1,2,4]triazolo[4,3-a]pyridin-3-yl)methoxy)-1,2,3,4-tetrahydroisoquinoline-2-carbonyl)cyclohexane-1-carboxylic acid] | 4.2 nM | 10 nM
CC(Oc1ccc(Br)c2c1[C@@H](CN1Cc3ccccc3C1=O)N(C(=O)[C@@H]1CCCC[C@@H]1C(=O)O)CC2)c1cn(C)nn1 (stereo partly drawn) [Example 45, (1S,2R)-2-((1S)-5-bromo-8-(1-(1-methyl-1H-1,2,3-triazol-4-yl)ethoxy)-1-((1-oxoisoindolin-2-yl)methyl)-1,2,3,4-tetrahydroisoquinoline-2-carbonyl)cyclohexane-1-carboxylic acid] | 4.9 nM | 110 nM
Cn1nnc2cc(COc3ccc(Cl)c4c3[C@@H](CN3Cc5ccccc5C3=O)N(C(=O)[C@@H]3CCCC[C@@H]3C(=O)O)CC4)ccc21 [Example 48, (1S,2R)-2-((S)-5-chloro-8-((1-methyl-1H-benzo[d][1,2,3]triazol-5-yl)methoxy)-1-((1-oxoisoindolin-2-yl)methyl)-1,2,3,4-tetrahydroisoquinoline-2-carbonyl)cyclohexane-1-carboxylic acid] | 8 nM | 4.4 nM
Cc1cc(COc2ccc(Cl)c3c2[C@@H](CN2Cc4ccccc4C2=O)N(C(=O)[C@@H]2CCCC[C@@H]2C(=O)O)CC3)no1 [Example 49, (1S,2R)-2-((S)-5-chloro-8-((5-methylisoxazol-3-yl)methoxy)-1-((1-oxoisoindolin-2-yl)methyl)-1,2,3,4-tetrahydroisoquinoline-2-carbonyl)cyclohexane-1-carboxylic acid] | 11 nM | 19 nM
O=C(O)[C@H]1CCCC[C@H]1C(=O)N1CCc2c(Cl)ccc(OCc3nnc4ccccn34)c2[C@H]1CN1Cc2ccccc2C1=O [Example 50] | 7.7 nM | 2 nM
O=C(O)[C@H]1CCCC[C@H]1C(=O)N1CCc2c(Cl)ccc(OCc3nccn3CC(F)(F)F)c2[C@H]1CN1Cc2ccccc2C1=O [Example 51, (1S,2R)-2-((S)-5-chloro-1-((1-oxoisoindolin-2-yl)methyl)-8-((1-(2,2,2-trifluoroethyl)-1H-imidazol-2-yl)methoxy)-1,2,3,4-tetrahydroisoquinoline-2-carbonyl)cyclohexane-1-carboxylic acid] | 10 nM | 110 nM
O=C(O)[C@H]1CCCC[C@H]1C(=O)N1CCc2c(Cl)ccc(OCc3nccn3CC(F)F)c2[C@H]1CN1Cc2ccccc2C1=O [Example 52, (1S,2R)-2-((S)-5-chloro-8-((1-(2,2-difluoroethyl)-1H-imidazol-2-yl)methoxy)-1-((1-oxoisoindolin-2-yl)methyl)-1,2,3,4-tetrahydroisoquinoline-2-carbonyl)cyclohexane-1-carboxylic acid] | 13 nM | 140 nM
Cn1nnc(COc2ccc(Cl)c3c2[C@@H](CN2Cc4ccccc4C2=O)N(C(=O)[C@@H]2CCCC[C@@H]2C(=O)O)CC3)c1C(F)F [Example 53, (1S,2R)-2-((S)-5-chloro-8-((5-(difluoromethyl)-1-methyl-1H-1,2,3-triazol-4-yl)methoxy)-1-((1-oxoisoindolin-2-yl)methyl)-1,2,3,4-tetrahydroisoquinoline-2-carbonyl)cyclohexane-1-carboxylic acid] | 6.2 nM | 1.4 nM
Cn1nnc(COc2ccc(Cl)c3c2[C@@H](CN2Cc4ccccc4C2=O)N(C(=O)[C@@H]2CCCC[C@@H]2C(=O)O)CC3)c1C(F)(F)F [Example 54, (1S,2R)-2-((S)-5-Chloro-8-((1-methyl-5-(trifluoromethyl)-1H-1,2,3-triazol-4-yl)methoxy)-1-((1-oxoisoindolin-2-yl)methyl)-1,2,3,4-tetrahydroisoquinoline-2-carbonyl)cyclohexane-1-carboxylic acid] | 3.6 nM | 7.2 nM
CCn1ccc(COc2ccc(Cl)c3c2[C@@H](CN2Cc4ccccc4C2=O)N(C(=O)[C@@H]2CCCC[C@@H]2C(=O)O)CC3)n1 [Example 55, (1S,2R)-2-((S)-5-chloro-8-((1-ethyl-1H-pyrazol-3-yl)methoxy)-1-((1-oxoisoindolin-2-yl)methyl)-1,2,3,4-tetrahydroisoquinoline-2-carbonyl)cyclohexane-1-carboxylic acid] | 5.6 nM | 73 nM
Cn1cnc(COc2ccc(Cl)c3c2[C@@H](CN2Cc4ccccc4C2=O)N(C(=O)[C@@H]2CCCC[C@@H]2C(=O)O)CC3)c1C(F)F [Example 56, (1S,2R)-2-((S)-5-Chloro-8-((5-(difluoromethyl)-1-methyl-1H-imidazol-4-yl)methoxy)-1-((1-oxoisoindolin-2-yl)methyl)-1,2,3,4-tetrahydroisoquinoline-2-carbonyl)cyclohexane-1-carboxylic acid] | 4.2 nM | 4.8 nM
CC(C)n1cc(COc2ccc(Cl)c3c2[C@@H](CN2Cc4ccccc4C2=O)N(C(=O)[C@@H]2CCCC[C@@H]2C(=O)O)CC3)nn1 [Example 57, (1S,2R)-2-((S)-5-chloro-8-((1-isopropyl-1H-1,2,3-triazol-4-yl)methoxy)-1-((1-oxoisoindolin-2-yl)methyl)-1,2,3,4-tetrahydroisoquinoline-2-carbonyl)cyclohexane-1-carboxylic acid] | 6.6 nM | 2.7 nM
CC(C)n1cc(COc2ccc(F)c3c2[C@@H](CN2Cc4ccccc4C2=O)N(C(=O)[C@@H]2CCCC[C@@H]2C(=O)O)CC3)nn1 [Example 58, (1S,2R)-2-((S)-5-fluoro-8-((1-isopropyl-1H-1,2,3-triazol-4-yl)methoxy)-1-((1-oxoisoindolin-2-yl)methyl)-1,2,3,4-tetrahydroisoquinoline-2-carbonyl)cyclohexane-1-carboxylic acid] | 8 nM | 68 nM
Cc1ccc(OCc2cn(C(C)C)nn2)c2c1CCN(C(=O)[C@@H]1CCCC[C@@H]1C(=O)O)[C@@H]2CN1Cc2ccccc2C1=O [Example 59, (1S,2R)-2-((S)-8-((1-isopropyl-1H-1,2,3-triazol-4-yl)methoxy)-5-methyl-1-((1-oxoisoindolin-2-yl)methyl)-1,2,3,4-tetrahydroisoquinoline-2-carbonyl)cyclohexane-1-carboxylic acid] | 11 nM | 21 nM
CC(C)n1cc(COc2ccc(C#N)c3c2[C@@H](CN2Cc4ccccc4C2=O)N(C(=O)[C@@H]2CCCC[C@@H]2C(=O)O)CC3)nn1 [Example 60, (1S,2R)-2-((S)-5-cyano-8-((1-isopropyl-1H-1,2,3-triazol-4-yl)methoxy)-1-((1-oxoisoindolin-2-yl)methyl)-1,2,3,4-tetrahydroisoquinoline-2-carbonyl)cyclohexane-1-carboxylic acid] | 96 nM | 2.8 nM
COc1ccc(OCc2cn(C(C)C)nn2)c2c1CCN(C(=O)[C@@H]1CCCC[C@@H]1C(=O)O)[C@@H]2CN1Cc2ccccc2C1=O [Example 61, (1S,2R)-2-((S)-8-((1-isopropyl-1H-1,2,3-triazol-4-yl)methoxy)-5-methoxy-1-((1-oxoisoindolin-2-yl)methyl)-1,2,3,4-tetrahydroisoquinoline-2-carbonyl)cyclohexane-1-carboxylic acid] | 5.6 nM | 63 nM
CC(C)n1cc(COc2ccc(C(F)(F)F)c3c2[C@@H](CN2Cc4ccccc4C2=O)N(C(=O)[C@@H]2CCCC[C@@H]2C(=O)O)CC3)nn1 [Example 62, (1S,2R)-2-((S)-8-((1-isopropyl-1H-1,2,3-triazol-4-yl)methoxy)-1-((1-oxoisoindolin-2-yl)methyl)-5-(trifluoromethyl)-1,2,3,4-tetrahydroisoquinoline-2-carbonyl)cyclohexane-1-carboxylic acid] | 14 nM | 120 nM
O=C(O)[C@H]1CCCC[C@H]1C(=O)N1CCc2c(Br)ccc(O[C@H]3CCN(C(=O)c4cncs4)C3)c2[C@H]1CN1CCCC1=O [Example 63, (1S,2R)-2-((S)-5-bromo-1-((2-oxopyrrolidin-1-yl)methyl)-8-(((S)-1-(thiazole-5-carbonyl)pyrrolidin-3-yl)oxy)-1,2,3,4-tetrahydroisoquinoline-2-carbonyl)cyclohexane-1-carboxylic acid] | 9.1 nM | 84 nM
O=C(O)[C@H]1CCCC[C@H]1C(=O)N1CCc2c(Br)ccc(OCc3nnc4ccccn34)c2[C@H]1CN1CCCC1=O [Example 64, (1S,2R)-2-((S)-8-[(1,2,4]triazolo[4,3-a]pyridin-3-ylmethoxy)-5-bromo-1-((2-oxopyrrolidin-1-yl)methyl)-1,2,3,4-tetrahydroisoquinoline-2-carbonyl)cyclohexane-1-carboxylic acid] | 6.3 nM | 23 nM
Cc1cnc(COc2ccc(Br)c3c2[C@@H](CN2CCCC2=O)N(C(=O)[C@@H]2CCCC[C@@H]2C(=O)O)CC3)s1 [Example 65, (1S,2R)-2-((S)-5-bromo-8-((5-methylthiazol-2-yl)methoxy)-1-((2-oxopyrrolidin-1-yl)methyl)-1,2,3,4-tetrahydroisoquinoline-2-carbonyl) cyclohexane-1-carboxylic acid] | 11 nM | 97 nM
CC(C)c1nc(COc2ccc(Br)c3c2[C@@H](CN2CCCC2=O)N(C(=O)[C@@H]2CCCC[C@@H]2C(=O)O)CC3)no1 [Example 66, (1S,2R)-2-((S)-5-bromo-8-((5-isopropyl-1,2,4-oxadiazol-3-yl)methoxy)-1-((2-oxopyrrolidin-1-yl)methyl)-1,2,3,4-tetrahydroisoquinoline-2-carbonyl) cyclohexane-1-carboxylic acid] | 5.7 nM | 27 nM
O=C(O)[C@H]1CCCC[C@H]1C(=O)N1CCc2c(Br)ccc(OCc3noc4ccccc34)c2[C@H]1CN1CCCC1=O [Example 67] | 8.5 nM | 4.8 nM
